Experimental data reported in patent publication US9579319B2 (Redx Pharma PLC, priority 2013, dated 2017).
Values after ≈ are worked out from the molar mass of the structure shown. Like-named read-outs stand apart in the source and are kept apart here.

What was measured:
[1] = system: Hedgehog signalling pathway; assay: Gli-reporter NIH3T3 luciferase assay (Hedgehog pathway inhibition); type: cell-based; settings: NIH3T3, Gli-reporter NIH-3T3 cells, recombinant mouse sonic hedgehog, 24 hours, luminescence
Outline: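 Mouse NIH3T3 cells with Gli-responsive luciferase reporter, pre-treated 1 h with compound (top final concentration 1 μM, 0.1% DMSO) in 0.5% calf serum medium. Then stimulated with recombinant mouse sonic hedgehog for 24 h at 37° C. Luminescence read-out (OneGLO), triplicates; IC50 reported.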

[2] = Thermodynamic solubility with filtration; type: physicochemical; settings: aqueous buffer, thermodynamic from solid, pH 7.4 phosphate buffer (0.1 M), room temperature, filtered
Description: Thermodynamic Solubility with Filtration
0.5 mg is weighed into a Mini Uniprep filter vial (Whatman, PVDF, 0.2 μm). 0.5 mL of pH 7.4 phosphate buffer (0.1 M) is dispensed and the vial is shaken at 600 rpm for 24 h at room temperature. At the end of this period, the solution is then filtered and an aliquot of the filtrate is used to create a tenfold dilution. Standards are prepared by serially diluting a 1250 μg/mL DMSO stock solution of the compound to 125 and 2.5 μg/mL, in Acetonitrile/Water (50:50, v/v). The concentration of the filtrate and tenfold dilution is measured by detection against the two calibration standards.

Work on `Cc1nc(CN(C)C2CCN(c3nnc(-c4ccnn4C)c(C)c3C)CC2)c(C(F)(F)F)o1` [Example 97, 1-[4,5-dimethyl-6-(2-methylpyrazol-3-yl)pyridazin-3-yl]-N-methyl-N-[[2-methyl-5-(trifluoromethyl)oxazol-4-yl]methyl]piperidin-4-amine] yielded an IC50 ([1]; read-out: Gli luc IC50) of 10 to 200 nM and a solubility at 24 h [2] of 1010 µg/mL (≈ 2180 µM).
Work on `CN(C(=O)Nc1ccc(F)cc1C(F)(F)F)C1CCN(c2nnc(-c3ccnn3C)c3ccncc23)CC1` [Example 112, 3-[4-fluoro-2-(trifluoromethyl)phenyl]-1-methyl-1-[1-[1-(2-methylpyrazol-3-yl)pyrido[3,4-d]pyridazin-4-yl]-4-piperidyl]urea] yielded an IC50 ([1]; read-out: Gli Luc nM (IC50)) of 1.26 nM, an IC50 ([1]; read-out: Gli luc IC50) of less than 10 nM and a solubility at 24 h [2] of 399 µg/mL (≈ 755 µM).
In the case of `Cc1c(-c2ccnn2C)nnc(N2CCC(NC(=O)NC(C)(C)C)CC2)c1C` [Example 116, 1-tert-butyl-3-[1-[4,5-dimethyl-6-(2-methylpyrazol-3-yl)pyridazin-3-yl]-4-piperidyl]urea], the IC50 ([1]; read-out: Gli luc IC50) is reported as 10 to 200 nM and the solubility at 24 h [2] is reported as 1260 µg/mL (≈ 3270 µM).
For `Cc1nc(CN(C)C2CCN(c3nnc(-c4ccnn4C)c4ccccc34)CC2)c(C(F)(F)F)o1` [Example 98, N-methyl-1-[4-(2-methylpyrazol-3-yl)phthalazin-1-yl]-N-[[2-methyl-5-(trifluoromethyl)oxazol-4-yl]methyl]piperidin-4-amine], the IC50 ([1]; read-out: Gli luc IC50) was 10 to 200 nM and the solubility at 24 h [2] was 106 µg/mL (≈ 218 µM).
Compound `Cn1nccc1-c1nnc(N2CCC(NCc3cnccc3C(F)(F)F)CC2)c2ccccc12` [Example 156, 1-[4-(2-methylpyrazol-3-yl)phthalazin-1-yl]-N-[[4-(trifluoromethyl)-3-pyridyl]methyl]piperidin-4-amine] has an IC50 ([1]; read-out: Gli luc IC50) of less than 10 nM and a solubility at 24 h [2] of 321 µg/mL (≈ 687 µM).
With `Cc1ccccc1CNC1CCN(c2nnc(-c3ccnn3C)c3ccccc23)CC1` [Example 170, 1-[4-(2-methylpyrazol-3-yl)phthalazin-1-yl]-N-(o-tolylmethyl)piperidin-4-amine] the IC50 ([1]; read-out: Gli luc IC50) was 10 to 200 nM and the solubility at 24 h [2] was 1190 µg/mL (≈ 2890 µM).
Work on `Cn1nccc1-c1nnc(N2CCC(NC(=O)Nc3ccccc3F)CC2)c2ccccc12` [Example 46, 1-(2-fluorophenyl)-3-[1-[4-(2-methylpyrazol-3-yl)phthalazin-1-yl]-4-piperidyl]urea] yielded an IC50 ([1]; read-out: Category (Hedgehog pathway inhibition activity, IC50)) of less than 10 nM.
